Experimental data taken from article PMC3799806 (Bioorganic & medicinal chemistry, 2012).

Tested on: HG23 cells
Assay: cell cytotoxicity assay kit
Assay type: cell-based
Details: TD50

O=C(CN(Cc1ccccc1)S(=O)(=O)NCc1cccc(Oc2ccccc2)c1)NCCN1CCOCC1 [Compound 11b, 2-(Benzyl(N-(3-phenoxybenzyl)sulfamoyl)amino)-N-(2-morpholinoethyl)acetamide]
higher toxicity versus compound 11a: ~ 8 fold
